pIC50, pKd: −log10 of the molar value.
Tests used:
[1] = target: Histone deacetylase 2 (Homo sapiens) (UniProt Q92769); conditions: at 20 µM;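 also: recombinant enzyme activity measured with the fluorogenic acetylated lysine substrate Boc-Lys(Ac)-AMC, read on a microplate reader after 30–60 min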
Description: Inhibition of human recombinant HDAC2 at 20 uM using Boc-Lys(Ac)-AMC as substrate after 30 to 60 mins by microplate reader assay

[2] = target: Histone deacetylase 3 (Homo sapiens) (UniProt O15379); conditions: at 20 µM;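 also: recombinant enzyme assay with Boc-Lys(Ac)-AMC substrate, fluorescence read on a microplate reader after 30–60 min incubation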
Sequence of Histone deacetylase 3 (Homo sapiens) (O15379 whole entry): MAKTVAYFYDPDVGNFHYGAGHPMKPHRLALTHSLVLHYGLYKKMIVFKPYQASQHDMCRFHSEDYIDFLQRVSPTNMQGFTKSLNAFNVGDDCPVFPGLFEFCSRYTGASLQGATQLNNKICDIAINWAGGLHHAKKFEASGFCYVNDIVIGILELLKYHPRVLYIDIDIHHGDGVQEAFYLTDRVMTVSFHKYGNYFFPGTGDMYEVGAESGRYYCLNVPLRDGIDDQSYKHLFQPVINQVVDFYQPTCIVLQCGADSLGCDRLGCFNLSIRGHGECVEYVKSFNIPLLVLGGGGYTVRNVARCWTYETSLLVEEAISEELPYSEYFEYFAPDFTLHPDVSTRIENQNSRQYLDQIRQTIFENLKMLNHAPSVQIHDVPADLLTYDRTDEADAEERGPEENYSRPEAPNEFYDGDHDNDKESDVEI
Description: Inhibition of human recombinant HDAC3 at 20 uM using Boc-Lys(Ac)-AMC as substrate after 30 to 60 mins by microplate reader assay

[3] = Cytotoxicity against human MV411 cells assessed as growth inhibition after 24 hrs by MTS assay; type: functional, cell-based, MV4-11; conditions: for pIC50: Homo sapiens, MV4-11, 24 h, read-out: IC50; for IC50: mv4-11
[4] = Lipophilicity, LogP of the compound; type: physicochemical; conditions: octanol/water
[5] = target: T1, Histone deacetylase (Homo sapiens) (UniProt Q13547+O15379+Q9UBN7+Q92769+Q9UQL6+Q8WUI4+Q9BY41+Q96DB2+P56524+Q9UKV0+Q969S8); experiment: Inhibition of HDAC in human MV411 cells assessed as up regulation of p21 WAF1/CIP1 expression after 4 hrs by western blot analysis; type: cell-based; conditions: MV4-11
[6] = target: T1, Histone deacetylase (Homo sapiens); experiment: Inhibition of HDAC in human MV411 cells assessed as increase in H3K9 aceylation after 4 hrs by western blot analysis; type: cell-based; conditions: MV4-11
[7] = Binding affinity to Zn2+ assessed as Zn2+/compound complex formation by ITC analysis

Sequence of Histone deacetylase 2 (Homo sapiens) (Q92769 whole entry): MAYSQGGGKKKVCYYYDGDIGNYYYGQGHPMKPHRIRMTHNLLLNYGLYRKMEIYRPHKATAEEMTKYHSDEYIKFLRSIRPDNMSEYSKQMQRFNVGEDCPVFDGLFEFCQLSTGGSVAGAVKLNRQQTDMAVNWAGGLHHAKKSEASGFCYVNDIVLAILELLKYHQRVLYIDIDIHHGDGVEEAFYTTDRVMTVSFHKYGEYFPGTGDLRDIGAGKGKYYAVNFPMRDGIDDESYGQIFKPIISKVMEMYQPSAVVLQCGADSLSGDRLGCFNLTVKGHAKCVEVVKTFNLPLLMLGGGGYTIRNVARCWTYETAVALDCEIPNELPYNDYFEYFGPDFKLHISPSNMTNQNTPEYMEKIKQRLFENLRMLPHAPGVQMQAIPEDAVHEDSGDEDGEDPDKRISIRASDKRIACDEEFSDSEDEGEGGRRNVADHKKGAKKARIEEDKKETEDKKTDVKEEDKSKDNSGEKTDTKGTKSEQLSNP

Compound | inhibition [1] | inhibition [2] | also measured
O=C(NCCc1c[nH]c2ccccc12)c1coc(-c2ccccc2O)n1 | 36% | 18.9% | 
O=C(NCc1cccc2ccccc12)c1coc(-c2ccccc2O)n1 | 45.2% | 32.3% | 
O=C(NO)C(c1ccccc1)c1ccccc1 |  | 76.4% | 
O=C(Nc1ccccc1)c1ccc(CNC(=O)c2coc(-c3ccccc3O)n2)cc1 | 41.3% | 15.8% | 
COC(=O)c1coc(-c2ccccc2O)n1 | 30.1% | 39.1% | 
O=C(NCCCCN1C(=O)c2ccccc2C1=O)c1coc(-c2ccccc2O)n1 | 25.4% | 11% | 
O=C(NCCCCNC(=S)NCCC(c1ccccc1)c1ccccc1)c1coc(-c2ccccc2O)n1 | 1.3% | 3.7% | 
O=C(CNC(=O)c1coc(-c2ccccc2O)n1)Nc1ccccc1 | 32% | 36.9% | 
O=C(O)c1ccc(CNC(=O)c2coc(-c3ccccc3O)n2)cc1 | 56.5% | 39.7% | 
O=C(NCc1ccc(-c2ccccc2)cc1)c1coc(-c2ccccc2O)n1 | 52.2% | 40.1% | pIC50 [3]: < 4.00
O=C(O)c1coc(-c2ccccc2O)n1 | 54.8% | 38.7% | 
O=C(Nc1ccccc1)c1coc(-c2ccccc2O)n1 | 29.5% | 22.5% | pIC50 [3]: 4.60
O=C(NCCC(c1ccccc1)c1ccccc1)c1coc(-c2ccccc2O)n1 | 28.7% | 37.5% | IC50 [3]: Not Active
O=C(NCCCCNCCC(c1ccccc1)c1ccccc1)c1coc(-c2ccccc2O)n1 | 19.7% | 18.1% | 
CC(/C=C/C(=O)NO)=C\[C@@H](C)C(=O)c1ccc(N(C)C)cc1 | 99.2% |  | 
O=C(NCCCCNC(=O)C(c1ccccc1)c1ccccc1)c1coc(-c2ccccc2O)n1 | 0% | 4% | 
O=C(NCC(c1ccccc1)c1ccccc1)c1coc(-c2ccccc2O)n1 | 34.8% | 23.7% | pIC50 [3]: 4.40
O=C(Nc1ccc(-c2ccccc2)cc1)c1coc(-c2ccccc2O)n1 | 31.9% | 30.2% | IC50 [3]: Not Active
O=C(NC(c1ccccc1)c1ccccc1)c1coc(-c2ccccc2O)n1 | 54.1% | 37.8% | logP [4]: 3.91; pIC50 [3]: 5.12; inhibition [5]: Dose-dependent effect; inhibition [6]: Dose-dependent effect; pKd [7]: 6.69
